According to patent US9062047B2, “Crystalline form of pyrimido[6,1-A] isoquinolin-4-one compound” (Verona Pharma plc, priority 2010, dated 2015):

Assays:
[1] = polymorph A (marketed) vs form B; cited from earlier work
[2] = Thermodynamic aqueous solubility by HPLC; type: physicochemical; conditions: purified water; for Aqueous solubility: pH 7, 25° C., 24 hours, 20 mg in 1 ml
Method: Thermodynamic Aqueous Solubility by HPLC: Aqueous solubility was determined by suspending sufficient compound in HPLC grade water to give a maximum final concentration of ≧20 mg ml^−1 of the parent compound. The suspension was equilibrated at 25° C. for 24 hours. The suspension was then filtered through a filter into a HPLC vial. The filtrate was then diluted by an appropriate factor. Quantification was executed by HPLC with reference to a standard solution of approximately 0.5 mg ml^−1 in Acetonitrile:Water: (1:1). Different volumes of the standard, diluted and undiluted sample solutions were injected. The solubility was calculated using the peak areas determined by integration of the peak found at the same retention time as the principal peak in the standard injection.
Analysis was performed on an Agilent 1100 series liquid chromatography, equipped with a UV detector (DAD or VWD) @254 nm and using Chemstation Rev.B.01.03 software for data processing. Chemical purity determination by HPLC.
As amorphous material and Form I were in hand, both samples were exposed to a straight forward aqueous solubility study in purified water at 25° C. This experiment was performed as it was unknown whether crystalline or amorphous material was initially isolated in-house during a previous synthesis campaign.
• A suspension of 20 mg of the candidate was mixed in purified water (1 ml, pH 7). The suspension was equilibrated at 25° C. for 24 hours. The suspension was then filtered into an HPLC vial and the filtrate then diluted by an appropriate factor with quantification being executed by HPLC with reference to a standard solution.

[3] = Applied pressure (100 KN), XRPD and DSC; type: physicochemical; conditions: overnight, 10 mg
Method: Applied pressure (100 KN): 10 mg of RPL554 was left in a pressing disc system overnight, forming a fine and uniform disc with a thickness of less than 0.1 mm. The disc was gently ground and analysed by XRPD (FIG. 13).

[4] = Crash cooling of a melt, LC/HPLC analysis (stability at temperature); type: physicochemical
Method: As there was historical experimental proof of generating amorphous material by heating RPL554 Form I up to 245° C. and rapidly cooling the melt, a repeat of this method was performed (TGA basis) and produced the same, clear, yellow, glass like material.
A proposed glass transition can be observed at approximately 120° C., with no formal recrystallisation observed. While this experiment was running, the sample was submitted for LC analysis, as stability at temperature was known to be a potential issue (observation of TGA). […] The experiment was repeated at a lower temperature (240° C.), this trying to avoid decomposition and thus return a better profile in terms of purity. LC analysis returned a similar profile of very low purity and various secondary products. It was therefore apparent that amorphous material would not be generated in this manner.

[5] = Slurry maturation (heat/cool cycles), XRPD; type: physicochemical; conditions: 24 solvents, cycled 20° C./50° C., 8 hour periods, 4 days
Method: 24× Slurry maturations were performed in an attempt to stress the current crystalline solid into undergoing form transformation.
• Some 20 mg of material was agitated in glass tubes in approximately 30 volumes of solvent and cycled between isothermal periods (8 hours) of 20° C. and 50° C. After 4 days of cycling, the solids were filtered off and dried in vacuo at 45° C. prior to analysis by XRPD. All results were compared to the starting material, RPL554 (Form I); see Table 4.

| SMILES | Difference in bio-activity between form A and form B [1] | Aqueous solubility compared with Form I ([2]; 25° C.) | Aqueous solubility [2] [mg/mL] | Form change under applied pressure (XRPD) [3] | Product by HPLC analysis after crash cooling a melt ([4]; crash cooled melt, amorphous by XRPD) [%] | Starting material remaining by LC after crash cooled melt ([4]; heated up to 245° C. and rapidly cooled) [%] | Form change on slurry maturation (XRPD) [5] |
| --- | --- | --- | --- | --- | --- | --- | --- |
| CCCCCCCCCCCCCCCC(=O)OC[C@@H](NC(=O)C(Cl)Cl)[C@H](O)c1ccc([N+](=O)[O-])cc1 [Chloramphenicol-3-palmitate] | eight |  |  |  |  |  |  |
| COc1cc2c(cc1OC)-c1c/c(=N\c3c(C)cc(C)cc3C)n(CCNC(N)=O)c(=O)n1CC2 [JN376F] |  | more soluble than Form I | 0.03 |  |  |  |  |
| COc1cc2c(cc1OC)-c1c/c(=N\c3c(C)cc(C)cc3C)n(CCNC(N)=O)c(=O)n1CC2 [RPL554, N-{2-[(2E)-2-(mesitylimino)-9,10-dimethoxy-4-oxo-6,7-dihydro-2H-pyrimido[6,1-a]-isoquinolin-3 (4H)-yl]ethyl}urea] |  |  | 0.001 | generates an amorphous phase | < 20 | 26 | extremely resilient to change |
